# Measurements from patent publication US5830434A, “Methods of treating non-insulin dependent diabetes mellitus with pancreatic polypeptide” (Medical University of South Carolina Foundation for …, priority 1997, dated 1998).
# Key:
# glucagon receptor [1] = biological target: T1, glucagon receptor (Rattus norvegicus, UniProt P30082); experiment: Glucagon saturation binding in liver plasma membranes; design: species or system Zucker rat
# T1 construct: from tissue; host or cells: liver plasma membranes of lean and fatty (fa/fa) Zucker rats
# Procedure: (§1) Experimental Animal Protocol. Lean (+/?) and fatty (fa/fa) Zucker rats were obtained from Harlan Labs at seven weeks of age and randomly assigned to two groups within each phenotype. One group was injected subcutaneously with PP (Peninsula Labs (Belmont, Calif.) (200 μg/day/kg body weight) in a vehicle of physiological saline (0.9% w/v) while the other group was injected with only vehicle. The two groups within each phenotype received their respective treatments for five days, after which the animals were weighed and sacrificed following an overnight fast. Blood samples were obtained from each animal for assays of plasma glucose and insulin according to standard methods known in the art (3) and the pancreas was removed and subjected to an acid-ethanol extraction (0.1N HCl, 70% ethanol) as described previously for assay of pancreatic insulin (3). Livers were removed into ice cold balanced salt solution. […]
# Binding curves were analyzed using nonlinear least squares.
# glucagon receptor [2] = biological target: T1, glucagon receptor; experiment: Glucagon competition binding in liver plasma membranes (50 pM labeled glucagon, with and without GTP); design: species or system Zucker rat
# [3] = tested on: G proteins migrating at 41 kDa in liver plasma membranes; experiment: Receptor dependent labeling of hepatocyte G proteins with AA-[32P]GTP; type: biochemical
# Procedure: Receptor dependent labeling of hepatocyte G proteins with 4-Azidoanilido-α[^32 P]GTP. The protocol for labeling G proteins with AA-GTP was as described previously (11). The AA-[32P]-GTP used in the labeling experiments was prepared according to the protocol of Offermans et al. (6,7).
# The purpose of these labeling studies was to determine whether PP stimulated the binding of AA-[^32 P]GTP to proteins migrating at the known molecular weight of G proteins in liver plasma membranes. […] Incubation of liver plasma membranes with 1 μM angiotensin II produced a two-fold increase in labeling of G protein(s) migrating at 41 kDa on SDS PAGE gels The 41 kDa band represents the pertussis-sensitive G protein family that is expressed in hepatocytes and which couples to angiotensin II receptors.
# adenylyl cyclase = experiment: Adenylyl cyclase assay in liver plasma membranes; type: biochemical, Zucker rat; settings: for effect of PP treatment on efficacy of glucagon in activating adenylyl cyclase: PP 200 μg/day/kg s.c. five days
# Procedure: Lean (+/?) and fatty (fa/fa) Zucker rats were obtained from Harlan Labs at seven weeks of age and randomly assigned to two groups within each phenotype. One group was injected subcutaneously with PP (Peninsula Labs (Belmont, Calif.) (200 μg/day/kg body weight) in a vehicle of physiological saline (0.9% w/v) while the other group was injected with only vehicle. The two groups within each phenotype received their respective treatments for five days, after which the animals were weighed and sacrificed following an overnight fast. Blood samples were obtained from each animal for assays of plasma glucose and insulin according to standard methods known in the art (3) and the pancreas was removed and subjected to an acid-ethanol extraction (0.1N HCl, 70% ethanol) as described previously for assay of pancreatic insulin (3). Livers were removed into ice cold balanced salt solution. After cooling, each liver was cleaned of connective tissue and minced into 2-4 mm pieces with scissors in 5 ml of ice-cold homogenizing buffer (50 mM Hepes, pH 6.5, 5 mM EDTA, 3 mM orthophenanthroline, 0.2 μM iodoacetic acid, 1 mM PMSF, 25 μm leupeptin (3). The minced liver was homogenized in a 40 ml Dounce homogenizer in 25 ml of homogenizing buffer with 25 strokes of the loose pestle and three strokes of the tight pestle. The homogenate was centrifuged for five minutes at 3000×g. The supernatant was removed and centrifuged for 20 min at 16,000×g. The resulting pellet was retained, resuspended in phosphate buffered saline (PBS) containing 5 mM MgCl2 and homogenized with five strokes of the Dounce homogenizer. After centrifuging for 20 min at 16,000×g, the membrane pellet was resuspended in homogenizing buffer containing 0.1% bovine serum albumin (BSA). Aliquots were frozen in liquid nitrogen and stored at -80° C.
# Adenylyl cyclase activity leading to the production of cAMP was determined in liver plasma membranes by methods previously described (2, 4). […] Cyclic AMP formed in the reaction was measured in the supernatant by radioimmunoassay according to methods described previously (2, 4). […]
# Gs α = experiment: Western blot assay of Gs α in liver plasma membranes; type: in vivo, Zucker rat; settings: PP 200 μg/day/kg s.c. five days
# Procedure: as §1, with “(3).” for “(3). Livers were removed into ice cold balanced salt solution.”
# Purified liver plasma membranes were solubilized on ice for one hour in 20 mM Tris, 1 mM EDTA, 1 mM DTT, 100 mM NaCl and 0.9% sodium cholate (pH 8.0). […] Following the procedure of Mumby (20), the PVDF membranes were probed with Gs α IgG and the bands were detected with ^125 I-labeled goat anti-rabbit IgG (1.0×10^6 cpm/ml). […]
# In performing the Western blot assays, protein was carefully measured in the liver plasma membrane supernatant to assure that equal amounts of soluble membrane protein would be loaded from the respective treatment groups.
# T1 sequence (P30082 27-485): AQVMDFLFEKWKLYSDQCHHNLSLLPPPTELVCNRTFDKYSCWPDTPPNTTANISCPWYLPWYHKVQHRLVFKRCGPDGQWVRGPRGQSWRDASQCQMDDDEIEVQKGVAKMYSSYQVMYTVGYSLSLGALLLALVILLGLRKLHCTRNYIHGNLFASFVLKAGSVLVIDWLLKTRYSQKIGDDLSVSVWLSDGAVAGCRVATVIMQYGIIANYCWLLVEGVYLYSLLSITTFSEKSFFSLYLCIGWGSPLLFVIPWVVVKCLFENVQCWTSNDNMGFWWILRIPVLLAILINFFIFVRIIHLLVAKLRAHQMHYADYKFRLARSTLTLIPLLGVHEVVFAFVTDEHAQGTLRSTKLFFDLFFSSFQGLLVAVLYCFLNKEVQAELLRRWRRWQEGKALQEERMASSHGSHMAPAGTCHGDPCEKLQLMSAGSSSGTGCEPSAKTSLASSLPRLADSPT
Molecule,"effect of PP treatment on total glucagon binding sites (glucagon receptor [1]; either phenotype (lean and fatty Zucker rats), PP 200 μg/day/kg s.c. five days)","Bmax, total glucagon binding sites (glucagon receptor [1]; liver membranes of fatty Zucker rats treated with PP 200 μg/day/kg s.c. for five days) [fmol/mg]",percentage of high affinity glucagon binding sites (glucagon receptor [2]; fatty Zucker rats treated with PP for five days) [%],percentage of high affinity glucagon binding sites (glucagon receptor [2]; lean Zucker rats treated with PP for five days) [%],"labeling of G proteins migrating at 41 kDa, result in words [3]",maximal increase in AA-[32P]GTP labeling of G proteins migrating at 41 kDa ([3]; maximal effect),effect of PP treatment on efficacy of glucagon in activating adenylyl cyclase (adenylyl cyclase; fatty Zucker rats),effect of PP treatment on efficacy of glucagon in activating adenylyl cyclase (adenylyl cyclase; lean Zucker rats),"maximal adenylyl cyclase activation by glucagon (adenylyl cyclase; second replicate, PP treated fatty Zucker rats (200 μg/day/kg s.c., five days)) [pmol cAMP/min/mg]",effect of PP treatment on hepatic Gs α expression (Gs α; fatty Zucker rats),effect of PP treatment on hepatic Gs α expression (Gs α; lean Zucker rats),increase in AA-[32P]GTP labeling of G protein(s) migrating at 41 kDa ([3]; 1 μM)
CC[C@H](C)[C@H](NC(=O)[C@H](Cc1ccc(O)cc1)NC(=O)[C@H](CCCNC(=N)N)NC(=O)[C@H](CCCNC(=N)N)NC(=O)[C@H](CC(C)C)NC(=O)[C@H](CC(=O)O)NC(=O)[C@H](C)NC(=O)[C@H](C)NC(=O)[C@H](Cc1ccc(O)cc1)NC(=O)[C@H](CCC(N)=O)NC(=O)[C@H](C)NC(=O)[C@H](CCSC)NC(=O)[C@H](CCC(N)=O)NC(=O)[C@H](CCC(=O)O)NC(=O)[C@@H]1CCCN1C(=O)[C@@H](NC(=O)[C@H](C)NC(=O)[C@H](CC(N)=O)NC(=O)[C@H](CC(=O)O)NC(=O)CNC(=O)[C@@H]1CCCN1C(=O)[C@H](Cc1ccc(O)cc1)NC(=O)[C@@H](NC(=O)[C@@H]1CCCN1C(=O)[C@H](CCC(=O)O)NC(=O)[C@H](CC(C)C)NC(=O)[C@@H]1CCCN1C(=O)[C@H](C)N)C(C)C)[C@@H](C)O)C(=O)N[C@@H](CC(N)=O)C(=O)N[C@@H](CCSC)C(=O)N[C@@H](CC(C)C)C(=O)N[C@H](C(=O)N[C@@H](CCCNC(=N)N)C(=O)N1CCC[C@H]1C(=O)N[C@@H](CCCNC(=N)N)C(=O)N[C@@H](Cc1ccc(O)cc1)C(N)=O)[C@@H](C)O [PP],failed to alter total glucagon binding sites,569 ± 45,71,55,concentration-dependent increase in labeling,approximately two-fold,significant decrease in the efficacy of glucagon,did not modify the efficacy of glucagon,60.2±1.5,decreased hepatic expression of Gs α to levels similar to that seen in lean rats,not altered,
"angiotensin II (DRVYIHPF; Angiotensin-2; UniProt P01019 25-32, looked up) [positive control that couples to pertussis-sensitive G proteins, reference compound]",,,,,,,,,,,,two-fold
